Experimental data published in patent US7923440B2, “Method of treating or preventing immune mediated disorders and pharmaceutical formulation for use therein” (Pantarhei Bioscience B.V., priority 2002, dated 2011).
Like-named read-outs stand apart in the source and are kept apart here.

Columns and labels:
human ERα = target: T1, human ERα (Homo sapiens, UniProt P03372); experiment: Competitive steroid binding assay, ERα; details: relative preference for binding to ERα protein, from Ki values
T1 sequence (P03372 1-595): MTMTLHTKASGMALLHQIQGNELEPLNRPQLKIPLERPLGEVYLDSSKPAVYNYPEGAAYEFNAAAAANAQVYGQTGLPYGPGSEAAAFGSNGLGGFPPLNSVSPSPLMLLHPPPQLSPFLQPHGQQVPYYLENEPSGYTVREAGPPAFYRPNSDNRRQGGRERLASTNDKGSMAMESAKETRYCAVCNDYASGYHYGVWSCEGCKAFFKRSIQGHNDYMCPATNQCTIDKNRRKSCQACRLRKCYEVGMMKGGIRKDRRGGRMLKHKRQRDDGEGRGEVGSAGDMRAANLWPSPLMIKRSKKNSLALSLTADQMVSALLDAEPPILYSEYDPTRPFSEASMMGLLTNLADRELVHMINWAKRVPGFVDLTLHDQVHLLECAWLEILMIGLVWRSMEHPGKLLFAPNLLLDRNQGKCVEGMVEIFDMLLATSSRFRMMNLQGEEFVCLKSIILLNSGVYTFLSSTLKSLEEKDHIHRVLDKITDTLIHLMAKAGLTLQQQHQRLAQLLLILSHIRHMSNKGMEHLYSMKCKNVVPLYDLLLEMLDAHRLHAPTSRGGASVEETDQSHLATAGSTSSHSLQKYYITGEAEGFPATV

uterus = details: continuous administration from a subcutaneous depot, Martucci et al. 1977; cited from earlier work
[1] = test system: DBA-1 mice developing collagen induced arthritis (CIA); experiment: Collagen induced arthritis (CIA) in female DBA-1 mice; type: in vivo, mouse
[2] = target: T2, human sex Hormone Binding Globulin (SHBG) (Homo sapiens, UniProt P04278); experiment: Competitive steroid-binding assay for SHBG
T2 construct: made in house; host or cells: transgenic mouse (serum)
T2 sequence (P04278 30-402): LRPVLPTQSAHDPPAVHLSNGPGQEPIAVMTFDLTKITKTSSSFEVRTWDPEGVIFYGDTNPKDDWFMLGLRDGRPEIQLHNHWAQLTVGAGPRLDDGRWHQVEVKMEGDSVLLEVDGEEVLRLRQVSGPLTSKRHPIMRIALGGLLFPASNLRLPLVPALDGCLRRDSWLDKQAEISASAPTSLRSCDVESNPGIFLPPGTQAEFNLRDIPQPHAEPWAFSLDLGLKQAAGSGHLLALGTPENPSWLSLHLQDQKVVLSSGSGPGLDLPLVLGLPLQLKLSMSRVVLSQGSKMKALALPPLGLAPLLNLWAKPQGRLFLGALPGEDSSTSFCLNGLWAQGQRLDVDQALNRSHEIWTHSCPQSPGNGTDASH
Protocol: Human SHBG was treated for 30 min at room temperature with a dextran-coated charcoal (DCC) suspension in phosphate buffered saline (PBS) to remove any steroid ligand. After centrifugation (2,000×g for 10 min) to sediment the DCC, the supernatant containing the human SHBG was diluted in PBS to a concentration of 1 nM based on its steroid binding capacity.
The average amounts of [^3H]labeled ligands bound to SHBG at each concentration of competitor (B) were expressed as a percentage of the average amounts of [^3H]labeled ligands bound to SHBG in the absence of competitor (B0), and were plotted against the concentration of competitor in each assay tube.

immature rat uterus = details: subcutaneously administered, cited from earlier work
[3] = ovariectomized female DBA-1 mice, sc and oral 0.1-3.0 mg/kg/day, 60 days

C[C@]12CC[C@@H]3c4ccc(O)cc4CC[C@H]3[C@@H]1[C@@H](O)[C@@H](O)[C@@H]2O [E4, 1,3,5 (10)-estratrien-3,15α,16α,17β-tetrol]
Relative ERα/ERβ preference (human ERα): 400% | uterotrophic activity (uterus): very weak uterotrophic activity | symptoms and severity of CIA ([1]; non-castrated female DBA-1, daily sc and/or oral): dose-dependently alleviate symptoms and severity of CIA | number of afflicted animals and/or severity of CIA symptoms [1, 3]: dose-dependently reduced | onset of CIA symptoms [1, 3]: dose-dependent effects in delaying the onset of CIA symptoms | binding to human SHBG ([2]; [3H]DHT as labeled ligand): does not bind at all | binding to human SHBG ([2]; [3H]estradiol as labeled ligand): does not bind at all | relative binding affinity for human SHBG ([2]; comparison among tested steroids, order ethinylestradiol, 17β-estradiol, testosterone, 5α-dihydrotestosterone): negligible | uterotrophic activity (immature rat uterus; Holinka et al. 1979): very weak uterotrophic activity | uterotrophic activity (immature rat uterus; Holinka et al. 1980): very weak uterotrophic activity
